Results published in US20240300913A1, “FLAVONE DERIVATIVE AND USE THEREOF FOR IMPROVING PULMONARY FIBROSIS” (A-CHEMBIO CO., LTD, priority 2023, published 2024).

Tests used:
[1] = system: A549 cells; assay: MTT cytotoxicity evaluation in A549 cells; type: cell-based; settings: for cell viability: compared to untreated control
Procedure: To confirm the effect of novel flavone derivative I on cell viability, A549 cells, derived from lung cancer, were used to examine cell viability with MTT [3-(4,5-dimethylthiazol-2-yl)-2,5-diphenyltetrazolium bromide]. After being suspended in a medium, A549 cells were dispensed into a 96-well plate and incubated for 24 hours. After 24 hours, 200 μL of a medium containing 0 to 20 μM BGC was added to each well of the plate and incubated for 24 or 48 hours. After incubation, MTT was diluted (0.5 mg/ml) in phosphate-buffered saline (PBS). Then, 20 μL of the diluted MTT was dispensed into each well, and incubation was performed in a CO2 incubator for 4 hours. After 4 hours, the MTT solution was removed, and 200 μL of dimethyl sulfoxide (DMSO) was dispensed into each well to dissolve the formazan precipitate for 5 minutes. Next, the absorbance was measured at 595 nm.
(§1) Cytotoxicity tests of novel flavone derivative II (Achem II) on A549 cells, HULEC-5a cells, and HLF cells were performed in the same manner as in Example 1 above, using the MTT assay. The results thereof are shown in FIGS. 17 to 19 as cell viability (%) after 24, 48, and 72 hours compared to that of the control group, the untreated sample group.
as §1, with “III” for “II”, “III)” for “II)”, “27” for “17”, “29” for “19”

[2] = system: A549 cells; assay: Effect upon EGF treatment in A549 cells (western blot of protein levels); type: cell-based; settings: 1 hour
Procedure: A549 cells, derived from lung cancer, were incubated at different cell numbers depending on the sample treatment time. 4.5×10^5 cells (30 minutes to 12 hours), 4.0×10^5 cells (24 hours), and 3.5×10^5 cells (48 hours) were suspended in the respective media, dispensed into a 60-mm plate, and incubated for 24 hours. After 24 hours, each plate was treated with EGF (2 ng/ml) alone or in combination with novel flavone derivative I at varying concentrations or a predetermined concentration. After a predetermined period (30 minutes to 48 hours) of incubation, the cells were lysed with RIPA lysis buffer ([50 mM Tris]-Cl (pH, 7.4), 1% NP-40, 150 mM NaCl, 1 mM EDTA, and 1 mM, phenylmethylsulfonyl fluoride (PMSF)) containing MG-132 (10 μM). Next, only the supernatant was collected by centrifugation (at 14,000 rpm for 10 minutes) at 4° C., and the proteins were separated by SDS-polyacrylamide gel electrophoresis (SDS-PAGE). […]
FIGS. 11 and 12 show the results thereof. […] Thus, the degree to which pulmonary fibrosis-related factors, whose expression levels were increased in A549 cells by EGF treatment, were inhibited by the treatment with novel flavone derivative I was evaluated.
The effect of novel flavone derivative II upon EGF treatment in A549 cells was evaluated in the same manner as in Example 1 above.

[3] = system: HLF cells; assay: Effect upon TGF-β1 treatment in HLF cells (western blot of protein levels); type: cell-based, human
Procedure: After suspending 5×10^6 human lung fibroblast (HLF) cells in a medium, […] dispensed into a 100-mm plate, and incubated for 24 hours. […] After 24 and 48 hours of incubation, the cells were lysed with RIPA lysis buffer ([50 mM Tris]-Cl (pH, 7.4), 1% NP-40, 150 mM NaCl, 1 mM EDTA, and 1 mM phenylmethylsulfonyl fluoride (PMSF)) containing MG-132 (10 μM, proteasome inhibitor, protect the HIF-1α subunit from proteasome degradation). Next, only the supernatant was collected by centrifugation (at 13,000 rpm for 7 minutes) at 4° C., and the proteins were separated by SDS-polyacrylamide gel electrophoresis (SDS-PAGE). The separated proteins were transferred to a polyvinylidene difluoride membrane (PVDF membrane), reacted in 5% nonfat dry milk for 2 hours, and then reacted with primary antibodies at 4° C. overnight. After overnight, the proteins further reacted with secondary antibodies corresponding to the respective primary antibodies. Then, the protein band was examined, according to the manufacturer's protocol, using an ECL kit.
The effect of novel flavone derivative II upon TGF-β1 treatment in HLF cells was evaluated in the same manner as in Example 1 above.
The effect of novel flavone derivative III upon TGF-β1 treatment in HLF cells was evaluated in the same manner as in Example 1 above.

[4] = system: HULEC-5a cells; assay: Effect upon TGF-β1 treatment in Hulec-5a cells (western blot of protein levels); type: cell-based, human
Procedure: 1.2×10^6 Hulec-5a cells, derived from pulmonary vessels, were suspended in a medium, dispensed into a 100-mm plate, and incubated for 24 hours. After 24 hours of incubation, each plate was treated with TGF-β1 (10 ng/ml) alone or in combination with novel flavone derivative I at varying concentrations or a predetermined concentration and/or nintedanib (NIDB), a therapeutic drug for idiopathic pulmonary fibrosis and interstitial lung disease. After 3, 24, and 48 hours of incubation, the cells were lysed with RIPA lysis buffer ([50 mM Tris]-Cl (pH, 7.4), 1% NP-40, 150 mM NaCl, 1 mM EDTA, and 1 mM phenylmethylsulfonyl fluoride (PMSF)) containing MG-132 (10 μM, proteasome inhibitor, protect the HIF-1α subunit from proteasome degradation). Next, only the supernatant was collected by centrifugation (at 13,000 rpm for 7 minutes) at 4° C., and the proteins were separated by SDS-polyacrylamide gel electrophoresis (SDS-PAGE). The separated proteins were transferred to a polyvinylidene difluoride membrane (PVDF membrane), reacted in 5% nonfat dry milk for 2 hours, and then reacted with primary antibodies at 4° C. overnight. After overnight, the proteins further reacted with secondary antibodies corresponding to the respective primary antibodies. Then, the protein band was examined, according to the manufacturer's protocol, using an ECL kit.
The effect of novel flavone derivative II upon TGF-β1 treatment in Hulec-5a cells was evaluated in the same manner as in Example 1 above.
The effect of novel flavone derivative III upon TGF-β1 treatment in Hulec-5a cells was evaluated in the same manner as in Example 1 above.

Row | SMILES | cytotoxicity ([1]; treatment concentration of 5 μM, incubated for 24 hours, MTT) | cell viability ([1]; treatment concentration of 5 μM, incubated for 48 hours) | levels of fibrosis-related factors (p-EGFR, EGFR, p-AKT, HIF-1α, and NOX2), increased by EGF treatment ([2]; 2 ng/mL EGF and compound at 1, 3, and 5 or 2 μM, FIGS. 11 and 12) | levels of fibrosis-related factors (fibronectin, COL4, α-SMA, and HIF-1α), increased by TGF-β1 treatment ([3]; 5 ng/mL TGF-β1 and 1 and 3 μM compound, 24 hours, FIG. 10) | levels of fibrosis-related factors (Fibronectin, α-SMA, NOX1, NOX2, and NOX4), increased by TGF-β1 treatment ([4]; HULEC-5a cells, 10 ng/mL TGF-β1 and/or 5 μM compound, 3, 24, and 48 hours, FIG. 9) | cell viability ([1]; all treatment concentrations, incubated for 24 and 48 hours) | cell viability ([1]; concentrations of 3 μM or higher, incubated for 72 hours) | level of NOX2, a fibrosis-related factor increased by EGF treatment ([2]; 2 ng/mL EGF and compound, FIG. 24) | levels of fibronectin, α-SMA, HIF-1α, and COL1, increased by TGF-β1 treatment ([3]; TGF-β1 treatment, FIG. 23) | levels of fibronectin, COL4, α-SMA, and HIF-1α, increased by TGF-β1 treatment ([4]; Hulec-5a cells, TGF-β1 treatment, FIG. 22)
1 | COc1ccc(-c2c(-c3ccc(O)c(O)c3)oc3cc(OC)c(OC)cc3c2=O)cc1 [novel flavone derivative I, 2-(3,4-dihydroxyphenyl)-6,7-dimethoxy-3-(4-methoxyphenyl)-4H-chromen-4-one] | No cytotoxicity was observed | about 80% | decreased | decreased | decreased | – | – | – | – | –
2 | COc1ccc(-c2c(-c3ccc(O)c(OC)c3)oc3cc(OC)c(OC)cc3c2=O)cc1 [novel flavone derivative II, 2-(4-hydroxy-3-methoxyphenyl)-6,7-dimethoxy-3-(4-methoxyphenyl)-4H-chromen-4-one] | – | – | – | – | – | ≥ 80% | ≤ 80% | decreased | decreased | decreased
